For 17 compounds, EC50 results are on record in US20250243171A1, “QUINAZOLINE COMPOUNDS FOR TREATMENT OF DISEASE” (Arthrosi Therapeutics, Inc., priority 2021, published 2025).

Some results are limits rather than exact numbers.

What all share (test): EC50 assay: Ba/F3 stable cell proliferation (CCK-8, 72 h)
Common to all, as to type: cell-based

For assay [1], the target named is T1, Ba/F3 stable cells (Homo sapiens, UniProt P00533, DUP767-769, cells depend on it).
T1 construct: EC50 Ba/F3-EGFR V769-D770insASV; other: Ba/F3-EGFR V769-D770insASV cells, 72 h, CCK-8
As to conditions: Ba/F3-EGFR V769-D770insASV cells. In outline: (§1)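 Ba/F3 stable cells were seeded at 4,000 cells/90 μL/well in 96-well plates and held 2 h at 37° C. in 5% CO2, then given 10 μL of serially titrated compound (0.1% DMSO final). After 72 h at 37° C., CCK-8 reagent was added for 4 hours and absorbance read at 450 nm to derive EC50.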

In assay [2] the target is T2, Ba/F3 stable cells (Homo sapiens, UniProt P00533, DUP768-770, cells depend on it).
T2 construct: EC50 Ba/F3-EGFR D770-N771insSVD; other: Ba/F3-EGFR D770-N771insSVD cells, 72 h, CCK-8
T2 sequence (P00533 with tags, fused parts or gaps DUP768-770): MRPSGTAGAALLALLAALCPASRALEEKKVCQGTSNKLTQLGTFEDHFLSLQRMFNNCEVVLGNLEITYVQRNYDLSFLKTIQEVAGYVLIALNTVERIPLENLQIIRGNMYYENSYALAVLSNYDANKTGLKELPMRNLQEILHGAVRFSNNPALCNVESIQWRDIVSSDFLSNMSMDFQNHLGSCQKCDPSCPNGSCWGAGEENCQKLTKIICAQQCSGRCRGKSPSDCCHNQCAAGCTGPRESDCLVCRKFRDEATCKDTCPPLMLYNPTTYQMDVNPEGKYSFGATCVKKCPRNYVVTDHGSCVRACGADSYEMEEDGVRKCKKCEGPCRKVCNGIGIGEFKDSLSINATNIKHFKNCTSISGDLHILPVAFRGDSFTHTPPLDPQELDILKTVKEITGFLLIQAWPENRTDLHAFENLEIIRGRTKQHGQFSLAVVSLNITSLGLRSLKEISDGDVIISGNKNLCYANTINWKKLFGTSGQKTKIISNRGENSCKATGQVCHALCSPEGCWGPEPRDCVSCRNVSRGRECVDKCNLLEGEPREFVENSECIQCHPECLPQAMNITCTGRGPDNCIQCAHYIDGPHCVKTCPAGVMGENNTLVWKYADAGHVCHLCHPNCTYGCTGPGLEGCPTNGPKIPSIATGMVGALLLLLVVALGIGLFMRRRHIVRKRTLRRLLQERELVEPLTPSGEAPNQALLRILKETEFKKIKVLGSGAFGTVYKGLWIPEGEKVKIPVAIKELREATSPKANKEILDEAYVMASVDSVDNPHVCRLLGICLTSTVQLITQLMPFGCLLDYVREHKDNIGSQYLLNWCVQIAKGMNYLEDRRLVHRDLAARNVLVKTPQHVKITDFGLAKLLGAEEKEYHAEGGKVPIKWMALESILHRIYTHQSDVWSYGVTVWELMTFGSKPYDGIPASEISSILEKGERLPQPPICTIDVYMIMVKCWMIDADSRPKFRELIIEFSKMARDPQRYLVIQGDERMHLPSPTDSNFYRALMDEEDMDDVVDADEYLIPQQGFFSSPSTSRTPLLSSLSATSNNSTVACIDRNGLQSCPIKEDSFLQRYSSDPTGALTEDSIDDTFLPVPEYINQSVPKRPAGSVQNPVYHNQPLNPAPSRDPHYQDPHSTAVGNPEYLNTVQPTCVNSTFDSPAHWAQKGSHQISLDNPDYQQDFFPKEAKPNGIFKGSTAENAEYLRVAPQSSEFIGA
Particulars: Ba/F3-EGFR D770-N771insSVD cells. In outline: as §1

The target of assay [3] is T3, Ba/F3 stable cells (Homo sapiens, UniProt P00533, DUP771-773, cells depend on it).
T3 construct: EC50 Ba/F3-EGFR H773-V774insNPH; other: Ba/F3-EGFR H773-V774insNPH cells, 72 h, CCK-8
T3 sequence (P00533 with tags, fused parts or gaps DUP771-773): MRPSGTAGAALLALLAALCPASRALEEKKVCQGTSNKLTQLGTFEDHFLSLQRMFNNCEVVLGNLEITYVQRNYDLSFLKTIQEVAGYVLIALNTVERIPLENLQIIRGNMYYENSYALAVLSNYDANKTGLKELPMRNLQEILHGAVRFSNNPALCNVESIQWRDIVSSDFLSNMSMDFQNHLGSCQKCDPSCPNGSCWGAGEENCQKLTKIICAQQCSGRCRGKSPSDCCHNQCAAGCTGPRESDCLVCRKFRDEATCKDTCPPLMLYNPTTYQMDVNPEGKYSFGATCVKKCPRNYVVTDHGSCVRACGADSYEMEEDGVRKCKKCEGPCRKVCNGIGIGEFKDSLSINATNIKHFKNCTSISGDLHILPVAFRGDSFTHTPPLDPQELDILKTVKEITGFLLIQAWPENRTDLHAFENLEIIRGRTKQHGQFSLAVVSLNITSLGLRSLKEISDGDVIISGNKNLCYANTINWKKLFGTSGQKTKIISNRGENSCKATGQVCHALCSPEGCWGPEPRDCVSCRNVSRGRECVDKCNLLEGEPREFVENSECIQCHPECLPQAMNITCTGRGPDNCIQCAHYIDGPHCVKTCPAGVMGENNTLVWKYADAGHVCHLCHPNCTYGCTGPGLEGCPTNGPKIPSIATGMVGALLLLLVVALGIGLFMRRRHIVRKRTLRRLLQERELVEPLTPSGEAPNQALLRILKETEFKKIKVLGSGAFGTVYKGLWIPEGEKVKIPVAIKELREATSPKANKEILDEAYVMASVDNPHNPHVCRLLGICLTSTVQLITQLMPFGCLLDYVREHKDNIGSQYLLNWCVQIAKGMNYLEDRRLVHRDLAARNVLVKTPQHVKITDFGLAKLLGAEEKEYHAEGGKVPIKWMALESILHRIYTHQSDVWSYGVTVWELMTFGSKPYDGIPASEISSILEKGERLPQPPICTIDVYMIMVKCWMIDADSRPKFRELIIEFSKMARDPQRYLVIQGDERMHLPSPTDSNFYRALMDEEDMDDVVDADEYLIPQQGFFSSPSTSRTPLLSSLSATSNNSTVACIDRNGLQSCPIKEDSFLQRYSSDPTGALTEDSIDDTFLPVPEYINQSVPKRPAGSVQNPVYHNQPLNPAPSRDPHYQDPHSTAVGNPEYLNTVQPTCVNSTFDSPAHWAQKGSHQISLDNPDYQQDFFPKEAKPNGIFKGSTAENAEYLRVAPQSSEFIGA
As to conditions: Ba/F3-EGFR H773-V774insNPH cells. In a few lines:
as §1

Assay [4] has as its target T4, Ba/F3 stable cells (Homo sapiens, UniProt P00533, INS763FQEA, cells depend on it).
T4 construct: EC50 Ba/F3-EGFR A763-Y764insFQEA; other: Ba/F3-EGFR A763-Y764insFQEA cells, 72 h, CCK-8
Particulars: Ba/F3-EGFR A763-Y764insFQEA cells. In outline: as §1

The target of assay [5] is T5, Ba/F3 stable cells (Homo sapiens, UniProt P00533, T790M/L858R, cells depend on it).
T5 construct: EC50 Ba/F3-EGFR L858R-T790M; other: Ba/F3-EGFR L858R-T790M cells, 72 h, CCK-8
T5 sequence (P00533 whole entry T790M/L858R): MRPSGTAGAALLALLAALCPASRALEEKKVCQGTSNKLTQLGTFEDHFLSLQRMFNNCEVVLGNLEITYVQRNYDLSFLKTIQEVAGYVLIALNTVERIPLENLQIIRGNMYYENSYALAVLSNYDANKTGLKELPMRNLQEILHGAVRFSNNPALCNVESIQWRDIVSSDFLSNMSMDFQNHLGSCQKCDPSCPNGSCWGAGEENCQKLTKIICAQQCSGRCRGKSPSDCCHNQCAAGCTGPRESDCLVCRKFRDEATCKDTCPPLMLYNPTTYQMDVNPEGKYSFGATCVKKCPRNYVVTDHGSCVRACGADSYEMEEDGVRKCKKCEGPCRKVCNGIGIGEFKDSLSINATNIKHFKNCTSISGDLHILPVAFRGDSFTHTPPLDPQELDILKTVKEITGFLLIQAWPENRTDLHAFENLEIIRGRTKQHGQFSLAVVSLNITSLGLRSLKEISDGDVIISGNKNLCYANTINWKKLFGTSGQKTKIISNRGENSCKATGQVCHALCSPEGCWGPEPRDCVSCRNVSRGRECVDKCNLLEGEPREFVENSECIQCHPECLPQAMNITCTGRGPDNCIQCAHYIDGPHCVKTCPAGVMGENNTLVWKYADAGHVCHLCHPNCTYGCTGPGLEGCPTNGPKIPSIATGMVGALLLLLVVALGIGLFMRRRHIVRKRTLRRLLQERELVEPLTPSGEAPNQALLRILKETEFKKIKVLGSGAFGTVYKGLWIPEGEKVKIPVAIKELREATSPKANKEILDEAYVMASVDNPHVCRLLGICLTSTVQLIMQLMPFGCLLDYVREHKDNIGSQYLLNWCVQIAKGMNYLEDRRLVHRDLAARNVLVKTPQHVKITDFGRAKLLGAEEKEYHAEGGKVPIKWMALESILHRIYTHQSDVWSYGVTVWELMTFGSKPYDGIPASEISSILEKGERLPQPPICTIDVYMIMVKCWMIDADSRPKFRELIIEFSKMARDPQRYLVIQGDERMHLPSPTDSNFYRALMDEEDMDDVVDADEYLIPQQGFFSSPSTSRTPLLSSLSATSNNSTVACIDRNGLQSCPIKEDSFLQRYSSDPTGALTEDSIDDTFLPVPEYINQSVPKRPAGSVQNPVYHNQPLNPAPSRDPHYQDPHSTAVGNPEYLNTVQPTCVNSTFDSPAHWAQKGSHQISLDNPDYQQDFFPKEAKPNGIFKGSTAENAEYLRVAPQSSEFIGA
As to conditions: Ba/F3-EGFR L858R-T790M cells. In outline: as §1

For assay [6], the target named is T6, Ba/F3 stable cells (Homo sapiens, UniProt P04626, DUP772-775, cells depend on it).
T6 construct: EC50 Ba/F3-HER2 A775-G776insYVMA; other: Ba/F3-HER2 A775-G776insYVMA cells, 72 h, CCK-8
As to conditions: Ba/F3-HER2 A775-G776insYVMA cells. In a few lines: as §1

T4 sequence (P00533 with tags, fused parts or gaps INS763FQEA): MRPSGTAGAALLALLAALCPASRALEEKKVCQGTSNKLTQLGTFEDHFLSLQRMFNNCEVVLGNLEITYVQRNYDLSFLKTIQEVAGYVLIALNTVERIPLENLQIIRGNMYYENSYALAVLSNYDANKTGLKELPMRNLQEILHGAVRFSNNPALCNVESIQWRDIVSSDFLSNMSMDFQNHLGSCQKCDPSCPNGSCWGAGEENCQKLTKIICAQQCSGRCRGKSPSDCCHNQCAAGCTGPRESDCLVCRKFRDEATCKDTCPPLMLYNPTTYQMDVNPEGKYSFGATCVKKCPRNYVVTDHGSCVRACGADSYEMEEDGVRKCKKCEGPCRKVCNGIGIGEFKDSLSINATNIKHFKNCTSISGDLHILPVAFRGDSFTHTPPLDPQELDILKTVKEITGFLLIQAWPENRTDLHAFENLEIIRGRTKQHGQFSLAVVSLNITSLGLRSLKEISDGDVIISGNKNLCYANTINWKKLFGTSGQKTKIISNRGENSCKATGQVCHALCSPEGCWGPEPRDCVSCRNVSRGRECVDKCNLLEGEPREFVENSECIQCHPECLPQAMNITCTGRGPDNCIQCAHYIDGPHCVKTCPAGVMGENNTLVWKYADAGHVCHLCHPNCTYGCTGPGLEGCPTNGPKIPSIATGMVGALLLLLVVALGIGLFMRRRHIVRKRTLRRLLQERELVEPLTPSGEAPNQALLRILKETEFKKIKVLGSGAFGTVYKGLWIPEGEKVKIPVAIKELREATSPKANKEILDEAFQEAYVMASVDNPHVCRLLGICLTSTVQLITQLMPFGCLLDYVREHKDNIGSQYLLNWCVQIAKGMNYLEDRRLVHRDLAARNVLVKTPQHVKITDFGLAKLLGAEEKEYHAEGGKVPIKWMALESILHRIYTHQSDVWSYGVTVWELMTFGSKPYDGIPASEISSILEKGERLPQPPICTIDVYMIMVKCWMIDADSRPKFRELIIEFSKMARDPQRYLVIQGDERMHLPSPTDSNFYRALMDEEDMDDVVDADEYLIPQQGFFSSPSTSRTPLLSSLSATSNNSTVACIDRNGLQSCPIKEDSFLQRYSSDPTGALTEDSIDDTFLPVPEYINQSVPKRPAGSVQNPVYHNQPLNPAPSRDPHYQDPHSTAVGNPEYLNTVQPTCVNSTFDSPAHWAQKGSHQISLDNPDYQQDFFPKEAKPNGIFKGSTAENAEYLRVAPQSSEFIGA

One may read the EC50 as the concentration giving half of the maximal effect. The low end stands for greater potency, the high end for weaker potency. Turning to `C=CC(=O)N1CCC(Oc2cc3c(Nc4ccc5c(c4)CCN5S(C)(=O)=O)ncnc3cc2OC)CC1` [Compound 134, 1-(4-((7-methoxy-4-((1-(methylsulfonyl)indolin-5-yl)amino)quinazolin-6-yl)oxy)piperidin-1-yl)prop-2-en-1-one], the EC50 is > 1000 nM at Ba/F3 stable cells [1]; > 1000 nM at Ba/F3 stable cells [2]; > 1000 nM on Ba/F3 stable cells [3]; 200 to 1000 nM on Ba/F3 stable cells [4]; > 1000 nM on Ba/F3 stable cells [5]; ≤ 200 nM on Ba/F3 stable cells [6].
Regarding `C=CC(=O)N1CCC(Oc2cc3c(Nc4cnc5ccccc5c4)ncnc3cc2OC)CC1` [Compound 135, 1-(4-((7-methoxy-4-(quinolin-3-ylamino)quinazolin-6-yl)oxy)piperidin-1-yl)prop-2-en-1-one], the EC50 at Ba/F3 stable cells [1] was ≤ 200 nM; on Ba/F3 stable cells [2] it was 200 to 1000 nM; at Ba/F3 stable cells [3], 200 to 1000 nM; at Ba/F3 stable cells [4] it was ≤ 200 nM; at Ba/F3 stable cells [5], 200 to 1000 nM; at Ba/F3 stable cells [6], 200 to 1000 nM.
As to `C=CC(=O)N1CCC(Oc2cc3c(Nc4nc5cc(Cl)ccc5o4)ncnc3cc2OC)CC1` [Compound 136, 1-(4-((4-((5-chlorobenzo[d]oxazol-2-yl)amino)-7-methoxyquinazolin-6-yl)oxy)piperidin-1-yl)prop-2-en-1-one], the concentration giving a half-maximal response (EC50) at Ba/F3 stable cells [1] was > 1000 nM; on Ba/F3 stable cells [2], > 1000 nM; at Ba/F3 stable cells [3], > 1000 nM; at Ba/F3 stable cells [4], 200 to 1000 nM; at Ba/F3 stable cells [5], > 1000 nM; on Ba/F3 stable cells [6], > 1000 nM.
For `C=CC(=O)N1CCC(Oc2cc3c(Nc4ccc5cn[nH]c5c4)ncnc3cc2OC)CC1` [Compound 137, 1-(4-((4-((1H-indazol-6-yl)amino)-7-methoxyquinazolin-6-yl)oxy)piperidin-1-yl)prop-2-en-1-one], the EC50 at Ba/F3 stable cells [1] is 200 to 1000 nM; on Ba/F3 stable cells [2] it was > 1000 nM; on Ba/F3 stable cells [3], > 1000 nM; on Ba/F3 stable cells [4] it was ≤ 200 nM; on Ba/F3 stable cells [5], > 1000 nM; at Ba/F3 stable cells [6], 200 to 1000 nM.
Take `C=CC(=O)N1CCC(Oc2cc3c(Nc4ccc5cnn(C)c5c4)ncnc3cc2OC)CC1` [Compound 138, 1-(4-((7-methoxy-4-((1-methyl-1H-indazol-6-yl)amino)quinazolin-6-yl)oxy)piperidin-1-yl)prop-2-en-1-one]: the EC50 on Ba/F3 stable cells [1] is ≤ 200 nM; at Ba/F3 stable cells [2] it was 200 to 1000 nM; at Ba/F3 stable cells [3], 200 to 1000 nM; at Ba/F3 stable cells [4], ≤ 200 nM; at Ba/F3 stable cells [5], 200 to 1000 nM; on Ba/F3 stable cells [6] it was ≤ 200 nM.
Turning to `C=CC(=O)N1CCC(Oc2cc3c(Nc4cccc5cn[nH]c45)ncnc3cc2OC)CC1` [Compound 139, 1-(4-((4-((1H-indazol-7-yl)amino)-7-methoxyquinazolin-6-yl)oxy)piperidin-1-yl)prop-2-en-1-one], the EC50 at Ba/F3 stable cells [1] is > 1000 nM; on Ba/F3 stable cells [2] it was > 1000 nM; at Ba/F3 stable cells [3] it was > 1000 nM; at Ba/F3 stable cells [4], ≤ 200 nM; on Ba/F3 stable cells [5] it was > 1000 nM; at Ba/F3 stable cells [6], > 1000 nM.
`C=CC(=O)N1CCC(Oc2cc3c(Nc4ccc5cnccc5c4)ncnc3cc2OC)CC1` [Compound 140, 1-(4-((4-(isoquinolin-6-ylamino)-7-methoxyquinazolin-6-yl)oxy)piperidin-1-yl)prop-2-en-1-one]: the EC50 on Ba/F3 stable cells [1], on Ba/F3 stable cells [2], on Ba/F3 stable cells [3], at Ba/F3 stable cells [4], at Ba/F3 stable cells [5] and on Ba/F3 stable cells [6] was > 1000 nM in each case.
For `C=CC(=O)N1CCC(Oc2cc3c(Nc4ccc5cccnc5c4)ncnc3cc2OC)CC1` [Compound 141, 1-(4-((7-methoxy-4-(quinolin-7-ylamino)quinazolin-6-yl)oxy)piperidin-1-yl)prop-2-en-1-one], the EC50 on Ba/F3 stable cells [1] is 200 to 1000 nM; on Ba/F3 stable cells [2], > 1000 nM; on Ba/F3 stable cells [3], 200 to 1000 nM; on Ba/F3 stable cells [4], ≤ 200 nM; at Ba/F3 stable cells [5] it was 200 to 1000 nM; on Ba/F3 stable cells [6] it was 200 to 1000 nM.
With `C=CC(=O)N1CCC(Oc2cc3c(Nc4ccc5scnc5c4)ncnc3cc2OC)CC1` [Compound 142, 1-(4-((4-(benzo[d]thiazol-5-ylamino)-7-methoxyquinazolin-6-yl)oxy)piperidin-1-yl)prop-2-en-1-one], the EC50 at Ba/F3 stable cells [1] is ≤ 200 nM; on Ba/F3 stable cells [2], > 1000 nM; on Ba/F3 stable cells [3], 200 to 1000 nM; on Ba/F3 stable cells [4], ≤ 200 nM; at Ba/F3 stable cells [5], 200 to 1000 nM; on Ba/F3 stable cells [6], ≤ 200 nM.
`C=CC(=O)N1CCC(Oc2cc3c(Nc4ccc5ncccc5c4)ncnc3cc2OC)CC1` [Compound 143, 1-(4-((7-methoxy-4-(quinolin-6-ylamino)quinazolin-6-yl)oxy)piperidin-1-yl)prop-2-en-1-one]: the EC50 on Ba/F3 stable cells [1] was ≤ 200 nM; at Ba/F3 stable cells [2] it was > 1000 nM; on Ba/F3 stable cells [3] it was 200 to 1000 nM; at Ba/F3 stable cells [4], ≤ 200 nM; on Ba/F3 stable cells [5], 200 to 1000 nM; at Ba/F3 stable cells [6], 200 to 1000 nM.
As for `C=CC(=O)N1CCC(Oc2cc3c(Nc4ccc5nccnc5c4)ncnc3cc2OC)CC1` [Compound 144, 1-(4-((7-methoxy-4-(quinoxalin-6-ylamino)quinazolin-6-yl)oxy)piperidin-1-yl)prop-2-en-1-one], the EC50 at Ba/F3 stable cells [1] is > 1000 nM; on Ba/F3 stable cells [2], > 1000 nM; on Ba/F3 stable cells [3] it was > 1000 nM; at Ba/F3 stable cells [4], 200 to 1000 nM; at Ba/F3 stable cells [5], > 1000 nM; at Ba/F3 stable cells [6], > 1000 nM.
On to `C=CC(=O)N1CCC(Oc2cc3c(Nc4ccc5ncsc5c4)ncnc3cc2OC)CC1` [Compound 145, 1-(4-((4-(benzo[d]thiazol-6-ylamino)-7-methoxyquinazolin-6-yl)oxy)piperidin-1-yl)prop-2-en-1-one], for which the EC50 on Ba/F3 stable cells [1] is 200 to 1000 nM; on Ba/F3 stable cells [2] it was > 1000 nM; on Ba/F3 stable cells [3], 200 to 1000 nM; on Ba/F3 stable cells [4], ≤ 200 nM; on Ba/F3 stable cells [5], 200 to 1000 nM; on Ba/F3 stable cells [6], > 1000 nM.
For `C=CC(=O)N1CCC(Oc2cc3c(Nc4cccc5cccnc45)ncnc3cc2OC)CC1` [Compound 146, 1-(4-((7-methoxy-4-(quinolin-8-ylamino)quinazolin-6-yl)oxy)piperidin-1-yl)prop-2-en-1-one], the EC50 was ≤ 200 nM on Ba/F3 stable cells [1]; 200 to 1000 nM at Ba/F3 stable cells [2]; 200 to 1000 nM at Ba/F3 stable cells [3]; ≤ 200 nM on Ba/F3 stable cells [4]; 200 to 1000 nM at Ba/F3 stable cells [5]; 200 to 1000 nM at Ba/F3 stable cells [6].
In the case of `C=CC(=O)N1CCC(Oc2cc3c(N4CCN(c5cccc(Cl)c5)CC4)ncnc3cc2OC)CC1` [Compound 147, 1-(4-((4-(4-(3-chlorophenyl)piperazin-1-yl)-7-methoxyquinazolin-6-yl)oxy)piperidin-1-yl)prop-2-en-1-one], the EC50 on Ba/F3 stable cells [1], at Ba/F3 stable cells [2], at Ba/F3 stable cells [3], on Ba/F3 stable cells [4], on Ba/F3 stable cells [5] and on Ba/F3 stable cells [6] was > 1000 nM each time.
As to `C=CC(=O)N1CCC(Oc2cc3c(Nc4ccc5ccccc5c4)ncnc3cc2OC)CC1` [Compound 148, 1-(4-((7-methoxy-4-(naphthalen-2-ylamino)quinazolin-6-yl)oxy)piperidin-1-yl)prop-2-en-1-one], the EC50 at Ba/F3 stable cells [1] was ≤ 200 nM; at Ba/F3 stable cells [2] it was ≤ 200 nM; on Ba/F3 stable cells [3], ≤ 200 nM; on Ba/F3 stable cells [4] it was ≤ 200 nM; at Ba/F3 stable cells [5] it was ≤ 200 nM; at Ba/F3 stable cells [6], 200 to 1000 nM.
`C=CC(=O)N1CCC(Oc2cc3c(Nc4cccc5ccccc45)ncnc3cc2OC)CC1` [Compound 149, 1-(4-((7-methoxy-4-(naphthalen-1-ylamino)quinazolin-6-yl)oxy)piperidin-1-yl)prop-2-en-1-one]: the EC50 at Ba/F3 stable cells [1], on Ba/F3 stable cells [2], at Ba/F3 stable cells [3], at Ba/F3 stable cells [4], on Ba/F3 stable cells [5] and at Ba/F3 stable cells [6] was ≤ 200 nM throughout.
Turning to `C=CC(=O)N1CCC(Oc2cc3c(Nc4ccc5[nH]ncc5c4)ncnc3cc2OC)CC1` [Compound 150, 1-(4-((4-((1H-indazol-5-yl)amino)-7-methoxyquinazolin-6-yl)oxy)piperidin-1-yl)prop-2-en-1-one], the EC50 at Ba/F3 stable cells [1] was 200 to 1000 nM; on Ba/F3 stable cells [2], > 1000 nM; on Ba/F3 stable cells [3], 200 to 1000 nM; on Ba/F3 stable cells [4], ≤ 200 nM; on Ba/F3 stable cells [5] it was > 1000 nM; at Ba/F3 stable cells [6], > 1000 nM.
